We go through five substances from patent publication US20070015723A1, “Antiviral oligonucleotides having a conserved G4 core sequence” (priority 1992, published 2007).

pEC50, pIC50: −log10 of the molar value. Where “and” joins values, the source holds several entries; their conditions need not be identical. Equal entries are not always repeated. A value given as a limit tells only on which side of the number the result lay.

One series concerns the target CD4/gp120 interaction (Human immunodeficiency virus type 1 group M subtype B, UniProt P03375). As to conditions: ELISA; Callahan et al.; cited from earlier work. On the technique in general: ELISA stands for enzyme-linked immunosorbent assay.
A further series has as its system HSV-2 strain E194. The class given is cell-based.
The test system of series [1] is Adenovirus, Type 5 (A-5), strain Adenoid 75. It is filed as cell-based.
For another series, the system named is vaccinia virus. It is filed as cell-based.
The test system of series [2] is respiratory syncytial virus (RSV) strain Long. It is filed as cell-based.
Series [3] deals with rhinovirus 2 (R-2), strain HGP. The class given is cell-based, human rhinovirus.
In series [4] the test system is influenza strain A/NWS/33 (H1N1). It is filed as cell-based, influenza virus.
Series [5] has as its system HSV-1 (KOS). Briefly: Effect of time of oligonucleotide addition on HSV-1 inhibition (NHDF cells, ELISA). Set-up: dose or concentration left out as unconfirmed. As to conditions: added at the time of virus infection (t=0). It is filed as cell-based.
In series [6] the test system is HSV-1 (KOS). Kind of series: HSV-1 infection ELISA assay. It is filed as cell-based. As to conditions: 50% inhibition of HSV replication relative to control infected cells; Table 1.
Series [7] addresses T1, human type II phospholipase A2 (Homo sapiens, UniProt P14555).
T1 sequence (P14555 21-144): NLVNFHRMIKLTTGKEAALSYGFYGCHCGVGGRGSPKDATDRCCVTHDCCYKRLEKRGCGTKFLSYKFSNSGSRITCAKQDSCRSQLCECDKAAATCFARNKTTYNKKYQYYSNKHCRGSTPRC
Briefly: Human type II phospholipase A2 enzyme assay (3H-oleic acid labelled E. coli substrate). It is filed as biochemical.

In series [8] the test system is Phospholipase A2 isolated from the venom of Trimeresurus flavoridis. Kind of series: Phospholipase A2 enzyme assay, Trimeresurus flavoridis venom enzyme. It is filed as biochemical.
Series [9] has as its system Crotalus durissus terrificus phospholipase A2.
Series [10] deals with Bovine pancreatic phospholipase A2 (Bos taurus, UniProt P00593).
Bovine pancreatic phospholipase A2, sequence (P00593 23-145): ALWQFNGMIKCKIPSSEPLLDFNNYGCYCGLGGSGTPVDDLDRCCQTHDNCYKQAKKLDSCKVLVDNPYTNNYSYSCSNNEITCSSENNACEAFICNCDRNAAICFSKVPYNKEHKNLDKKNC
The target of series [11] is Apis mellifera phospholipase A2 (Apis mellifera, UniProt P00630).
The subject of a further series is HIV-1IIIB. Briefly: Acute HIV infection assay (XTT, CEM cells). As to conditions: for pIC50: inhibition of HIV. On the technique in general: Tetrazolium dyes change colour on reduction, which living cells bring about.
The next series deals with CEM cell line. Briefly: Cytotoxicity (TC50) alongside acute HIV infection assay.
Series [12] concerns HSV-1 (KOS). Briefly: HSV-1 virus yield assay. The class given is cell-based. As to conditions: FIG. 2.
The next series relates to varicella zoster virus. It is filed as cell-based.
In another series the test system is HIV. It is filed as cell-based.

With Dextran sulfate, at CD4/gp120 interaction, the “effect on the gp120/CD4 interaction” value is “does not prevent the gp120/CD4 interaction”.
Take “ISIS 3383: scrambled version of ISIS 1082, SEQ ID NO: 122; negative control oligonucleotide (TGGGCACGTGCCTGACACGGC; chemistry not given here)”: the ED50 in the series with HSV-2 strain E194 was 2800 nM; in [1] it was more than 100000 nM; with vaccinia virus it was more than 100000 nM; in [2], 700 nM; in series [3], more than 100000 nM; in series [4], 19000 nM. The TI with HSV-2 strain E194 is given as more than 36; in [2], 60; in series [4] it was more than 5. Also, in the series with HSV-1 (KOS) [5], the “inhibition of HSV replication” value was “inhibited HSV replication”.
By pEC50 is commonly meant the EC50 on a negative log10 scale, so that one unit is a factor of ten. The term pIC50 denotes the negative decadic logarithm of the IC50, by convention in mol/L. On to “ISIS 3196: GGG T GGG T ATA G AAG G GCT CC, P = S, SEQ ID NO 47 (GGGTGGGTATAGAAGGGCTCC; all phosphorothioate, sugars by position and methylation of C not given here)”, for which, in the series with HSV-1 (KOS) [6], the negative-log EC50 (pEC50) is 6.70. The “inhibition of human type II phospholipase A2” value in series [7] (1 μM) is “completely inhibited”. Besides, the “% Inhibition (1 μM)” value was 98.5% in [7] (1 μM, Table 4); 100% and 76.2% in series [7] (1 μM, Table 5, two separate experiments). Further, the pIC50 is approximately 6.82 in [7] (FIG. 5); less than 5.00 in series [8]; approximately 6.52 in [9]; approximately 4.00 in series [10]; less than 4.00 in series [11]. For the same substance, the “effect on substrate kinetics” value in series [7] (increasing E. coli substrate, ISIS 3481 at 0.2 μM and 2 μM) is “apparent noncompetitive inhibitor”. The entries for the “inhibitory activity (% inhibition)” value in series [7] (not boiled) and in series [7] (placed in boiling water for 15 minutes prior to assay) were 94% and 21%, respectively.
As to “ISIS 4721: CAC GGG GTC G, P = S, SEQ ID NO 32 (CACGGGGTCG; all phosphorothioate, sugars by position and methylation of C not given here)”, the pEC50 with HSV-1 (KOS) [6] is 6.40. Besides, in the series with HIV-1IIIB, the “TI (TC50/IC50)” value was 546; the pIC50 is 6.68 and 6.59. For the same substance, the TC50 with CEM cell line worked out at 142000 nM.
Substance “ISIS 5652: TT GGGG TT GGGG TT GGGG TT, P = S, SEQ ID NO 37 (TTGGGGTTGGGGTTGGGGTT; all phosphorothioate, sugars by position not given here)” had a pEC50 in the series with HSV-1 (KOS) [6] of 6.80. Moreover, in the series with HSV-1 (KOS) [12], the “anti-HSV activity in virus yield assay” value is on record as “dose-dependent anti-HSV activity”. The ED50 with HSV-2 strain E194 is 300 nM; in the series with varicella zoster virus, 18000 nM; in series [1] it was more than 100000 nM; in [2], 1900 nM; in [3], more than 100000 nM; in the series on HIV, 180 nM. The substance further yielded an ED50 in series [4] of 600 nM. Also, the TI is listed as more than 333 with HSV-2 strain E194; less than 1.0 in series [1]; more than 53 in [2]; 227 in the series with HIV; 93 in series [4]. The “TI (TC50/IC50)” value with HIV-1IIIB was determined as 227. Also, the pIC50 in the series on HIV-1IIIB was 7.00 and 6.74.
